From publication PMC2884290 (Neuropsychopharmacology : official publication of the …, 2009)
Like-named read-outs stand apart in the source and are kept apart here.

Key:
[1] = target: T1, mGluR5 (Rattus norvegicus, UniProt P31424); format: cell-based
[2] = target: T1, mGluR5; assay: PI hydrolysis in rat hippocampal slices

T1 sequence (P31424 21-1203): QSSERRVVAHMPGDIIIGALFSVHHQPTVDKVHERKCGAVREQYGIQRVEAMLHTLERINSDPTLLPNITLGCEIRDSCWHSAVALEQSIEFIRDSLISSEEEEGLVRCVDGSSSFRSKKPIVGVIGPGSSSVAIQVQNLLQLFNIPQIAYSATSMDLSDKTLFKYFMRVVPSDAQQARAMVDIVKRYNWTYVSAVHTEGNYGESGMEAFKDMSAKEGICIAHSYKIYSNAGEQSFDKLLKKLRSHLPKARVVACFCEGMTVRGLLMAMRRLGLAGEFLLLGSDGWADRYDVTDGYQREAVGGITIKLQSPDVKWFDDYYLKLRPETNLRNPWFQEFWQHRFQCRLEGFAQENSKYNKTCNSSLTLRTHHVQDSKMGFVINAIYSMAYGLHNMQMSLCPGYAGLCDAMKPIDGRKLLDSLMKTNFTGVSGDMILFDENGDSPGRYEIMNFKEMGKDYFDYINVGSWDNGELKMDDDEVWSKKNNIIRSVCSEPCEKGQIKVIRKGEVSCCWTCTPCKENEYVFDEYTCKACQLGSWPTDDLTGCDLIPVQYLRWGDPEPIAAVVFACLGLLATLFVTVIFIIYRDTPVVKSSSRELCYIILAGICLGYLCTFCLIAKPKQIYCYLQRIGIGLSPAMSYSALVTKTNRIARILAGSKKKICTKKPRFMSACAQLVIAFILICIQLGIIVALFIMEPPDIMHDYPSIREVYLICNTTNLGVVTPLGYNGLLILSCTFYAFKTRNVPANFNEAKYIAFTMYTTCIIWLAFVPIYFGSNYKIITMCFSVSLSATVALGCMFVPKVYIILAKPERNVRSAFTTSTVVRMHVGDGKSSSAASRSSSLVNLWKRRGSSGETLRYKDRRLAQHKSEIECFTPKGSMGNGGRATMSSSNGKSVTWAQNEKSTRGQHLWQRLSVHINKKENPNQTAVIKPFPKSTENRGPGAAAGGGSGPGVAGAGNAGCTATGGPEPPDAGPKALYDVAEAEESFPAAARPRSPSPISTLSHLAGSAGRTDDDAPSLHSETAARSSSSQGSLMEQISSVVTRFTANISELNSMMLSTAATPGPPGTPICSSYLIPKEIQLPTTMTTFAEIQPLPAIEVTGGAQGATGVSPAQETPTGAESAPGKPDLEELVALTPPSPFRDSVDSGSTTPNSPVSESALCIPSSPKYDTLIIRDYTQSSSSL

SMILES | EC50 [1] [µM] | EC50 [2] [µM]
O=C(c1ccc(F)cc1)N1CCC[C@H](c2nc(-c3ccc(F)cc3)no2)C1 [ADX47273] | 0.108 ± 0.041 | 
NC(C(=O)O)c1cc(O)cc(O)c1 (centres unmarked) [DHPG] |  | 8 ± 1.6
